PubChem BioAssay (NCI)
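Cultured in 96-well plates, cells were exposed to test compound for 48 hours across five concentrations. Abbreviation: GI50, concentration required for 50% inhibition of growth. TGI: total growth inhibition.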

Experiments:
Experiment in all cases: NCI tumour cell line growth inhibition, 48 h
T-47D breast = test system: T-47D breast
M14 melanoma = test system: M14 melanoma
NCI-H522 lung = test system: NCI-H522 lung
MDA-MB-435 = test system: MDA-MB-435
KM12 colon = test system: KM12 colon
TK-10 renal = test system: TK-10 renal
NCI-H23 lung = test system: NCI-H23 lung
SW-620 colon = test system: SW-620 colon
HCT-116 colon = test system: HCT-116 colon
SF-539 CNS = test system: SF-539 CNS
HL-60(TB) leukemia = test system: HL-60(TB) leukemia
NCI-H460 lung = test system: NCI-H460 lung
IGROV1 ovarian = test system: IGROV1 ovarian
NCI/ADR-RES ovarian = test system: NCI/ADR-RES ovarian
LOX IMVI melanoma = test system: LOX IMVI melanoma
OVCAR-8 ovarian = test system: OVCAR-8 ovarian
MDA-MB-231 breast = test system: MDA-MB-231 breast
SNB-75 CNS = test system: SNB-75 CNS

Row | SMILES | TGI (T-47D breast) [µM] | TGI (M14 melanoma) [µM] | TGI (NCI-H522 lung) [µM] | TGI (MDA-MB-435) [µM] | TGI (KM12 colon) [µM] | TGI (TK-10 renal) [µM] | TGI (NCI-H23 lung) [µM] | TGI (SW-620 colon) [µM] | TGI (HCT-116 colon) [µM] | TGI (SF-539 CNS) [µM] | TGI (HL-60(TB) leukemia) [µM] | TGI (NCI-H460 lung) [µM] | TGI (IGROV1 ovarian) [µM] | TGI (NCI/ADR-RES ovarian) [µM] | TGI (LOX IMVI melanoma) [µM] | TGI (OVCAR-8 ovarian) [µM] | TGI (MDA-MB-231 breast) [µM] | TGI (SNB-75 CNS) [µM] | GI50 (HCT-116 colon) [µM] | GI50 (SF-539 CNS) [µM]
1 | C=C[C@@]1(C)CC2CC[C@]3(C)C(C)=CC(=O)CC3[C@]2(C)CC1O (stereo partly drawn) | > 100 | > 100 | 74.4 | > 100 | > 100 | > 100 | > 100 | > 100 | > 100 | > 100 | 82 | > 100 | > 100 | > 100 | > 100 | – | – | – | – | –
2 | Cn1c(=O)cc(NNc2ccc(Br)cc2)[nH]c1=O | – | 33.4 | – | 25.3 | 10.4 | 34.9 | – | 15.6 | 29.3 | 8.14 | 7.14 | 19.3 | 23.1 | > 100 | 4.13 | 41.4 | 27.7 | – | – | –
3 | Cc1ccc(S(=O)(=O)c2c(N)c3nccn3c3nc4ccccc4nc23)cc1 | – | > 100 | > 100 | – | > 100 | > 100 | > 100 | > 100 | > 100 | > 100 | > 100 | > 100 | > 100 | – | > 100 | > 100 | – | > 100 | – | –
4 | CC(C)=CCC/C(C)=C/CC/C(C)=C/CC/C=C(\C)CC/C=C(\C)CCC1SC1(C)C (stereo not drawn) | – | > 100 | > 100 | – | > 100 | > 100 | > 100 | > 100 | > 100 | > 100 | > 100 | > 100 | > 100 | – | > 100 | > 100 | – | > 100 | – | –
5 | CC(C)(C)c1ccc(-c2nc3ccccc3c(=O)o2)cc1 | > 100 | > 100 | 69.6 | > 100 | > 100 | > 100 | > 100 | > 100 | > 100 | > 100 | 48.8 | > 100 | > 100 | > 100 | 37.4 | > 100 | – | 95.2 | – | –
6 | O/N=C(\C=N\O)c1ccc2c(c1)Sc1ccccc1O2 | 74.7 | 39.6 | 8.17 | 33.9 | > 100 | 84.1 | 60.3 | 78.7 | 45.7 | 82.4 | 59.8 | 60.5 | – | – | > 100 | 74.8 | 38.4 | 50.3 | – | –
7 | CC1=C2C(=O)C3[C@@H](CCC4=CC(=O)CC[C@@]43C)C2CC[C@]12O[C@@H]1C[C@H](C)CN[C@H]1[C@H]2C (stereo partly drawn) | – | > 100 | 37.1 | – | > 100 | 98.7 | > 100 | > 100 | > 100 | > 100 | 28.2 | > 100 | > 100 | – | > 100 | > 100 | – | > 100 | – | –
8 | Nc1ncnc2c1ncn2[C@@H]1C[C@H]1CO | > 100 | > 100 | > 100 | – | > 100 | – | > 100 | > 100 | > 100 | > 100 | > 100 | > 100 | – | > 100 | > 100 | > 100 | > 100 | – | – | –
9 | COc1cc2c(c(N)c1OC)C(=O)/C(=C/c1cc(C)c(O)c(C)c1)C2 | > 100 | > 100 | – | – | 1.82 | > 100 | > 46.6 | > 100 | 2.24 | – | – | > 57.8 | > 100 | > 100 | > 100 | > 100 | > 100 | – | – | –
10 | COC(=O)c1ccccc1/C=C1\Cc2cc3c(cc2C1=O)CCC3 | > 100 | > 100 | > 100 | – | > 100 | > 100 | > 100 | > 100 | > 100 | > 100 | > 100 | > 100 | > 100 | > 100 | > 100 | > 100 | > 100 | > 100 | – | –
11 | O=C(O)Cn1nnc2c(=O)[nH][nH]c(=O)c21 | – | > 100 | – | > 100 | > 100 | > 100 | > 100 | – | > 100 | – | > 100 | > 100 | – | > 100 | > 100 | > 100 | > 100 | – | – | –
12 | CCCCCCNC(=O)c1cc(C#Cc2cc(OC)ccc2OC)ccc1OC | 11 | > 100 | > 100 | 13.4 | > 100 | > 100 | > 100 | > 100 | > 100 | > 100 | – | > 100 | > 100 | > 100 | > 100 | > 100 | > 100 | – | 6.9 | > 100
13 | Cc1ccccc1N=Cc1ccc(N(CCC#N)S(=O)(=O)c2ccccc2)cc1 | – | > 100 | > 100 | – | > 100 | > 100 | > 100 | > 100 | > 100 | > 100 | > 100 | > 100 | > 100 | – | > 100 | > 100 | – | > 100 | – | –
14 | Cc1nc2c(O)cccc2c(=O)[nH]1 | – | > 1000 | > 1000 | > 1000 | > 1000 | > 1000 | > 1000 | > 1000 | > 1000 | > 1000 | 471 | > 1000 | > 1000 | > 1000 | > 1000 | > 1000 | – | > 1000 | – | –
15 | Cc1cccc2nc3n(c12)C(=O)c1ccccc1-3 | – | – | > 100 | – | > 100 | > 100 | > 100 | > 100 | > 100 | > 100 | > 100 | > 100 | > 100 | > 100 | – | > 100 | – | > 100 | – | –
16 | Cc1ccc(S(=O)(=O)NC(=O)C2(Br)S(=O)(=O)OCCOS2(=O)=O)cc1 | – | > 100 | > 100 | – | – | > 100 | > 100 | – | > 100 | > 100 | > 100 | > 100 | > 100 | – | > 100 | > 100 | – | > 100 | – | –
